In PubChem BioAssay AID2060509 (Molecular Pharmacology Branch, DTP, NCI, 2025):

System: 485176-168-R4-J1-PDC spheroids with HUVEC/MSC, viability
Experiment: Anticancer human tumor 485176-168-R4-J1-PDC patient-derived pancreatic adenocarcinoma cell line growth inhibition [GQUAD]
Conditions: for IC50: curve of first compound; for viability, T/C: stronger effect = lower value
In short: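 Viability of tumor cells grown as complex spheroids with endothelial and stromal cells, exposed to drug combinations. Top concentration at or near clinical Cmax (else 10 microM), diluted in half-log increments.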

[1] = second compound 0.0316 µM, first compound 0.0316 µM
[2] = second compound 0.0316 µM, first compound 0.1 µM
[3] = second compound 0.0316 µM, first compound 0.316 µM
[4] = second compound 0.0316 µM, first compound 1 µM
[5] = second compound 0.0316 µM, first compound 3.16 µM
[6] = second compound 0.0316 µM, first compound 10 µM
[7] = second compound 0.1 µM, first compound 0.0316 µM
[8] = second compound 0.1 µM, first compound 0.1 µM
[9] = second compound 0.1 µM, first compound 0.316 µM
[10] = second compound 0.1 µM, first compound 1 µM
[11] = second compound 0.1 µM, first compound 3.16 µM
[12] = second compound 0.1 µM, first compound 10 µM
[13] = second compound 0.316 µM, first compound 0.0316 µM
[14] = second compound 0.316 µM, first compound 0.1 µM
[15] = second compound 0.316 µM, first compound 0.316 µM
[16] = second compound 0.316 µM, first compound 1 µM
[17] = second compound 0.316 µM, first compound 3.16 µM
[18] = second compound 0.316 µM, first compound 10 µM
[19] = second compound 1 µM, first compound 0.0316 µM
[20] = second compound 1 µM, first compound 0.1 µM
[21] = second compound 1 µM, first compound 0.316 µM
[22] = second compound 1 µM, first compound 1 µM
[23] = second compound 1 µM, first compound 3.16 µM
[24] = second compound 1 µM, first compound 10 µM
[25] = second compound 3.16 µM, first compound 0.0316 µM
[26] = second compound 3.16 µM, first compound 0.1 µM
[27] = second compound 3.16 µM, first compound 0.316 µM
[28] = second compound 3.16 µM, first compound 1 µM
[29] = second compound 3.16 µM, first compound 3.16 µM
[30] = second compound 3.16 µM, first compound 10 µM
[31] = second compound 10 µM, first compound 0.0316 µM
[32] = second compound 10 µM, first compound 0.1 µM
[33] = second compound 10 µM, first compound 0.316 µM
[34] = second compound 10 µM, first compound 1 µM
[35] = second compound 10 µM, first compound 3.16 µM
[36] = second compound 10 µM, first compound 10 µM
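Also: spheroids exposed to compounds for seven days before readout.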
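For viability, T/C in this document: percent viability relative to DMSO vehicle control wells as 100%.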

CC1COCCN1c1cc(C2(S(C)(=N)=O)CC2)nc(-c2ccnc3[nH]ccc23)n1 (stereo unspecified) + Cc1[nH]c2ccc(F)cc2c1-c1nc2c3cccnc3c3ncccc3c2[nH]1
IC50 (second compound 0.0316 µM): 1350 nM
IC50 (second compound 0.1 µM): 1840 nM
IC50 (second compound 0.316 µM): 1830 nM
IC50 (second compound 1 µM): 1910 nM
IC50 (second compound 3.16 µM): 1260 nM
IC50 (second compound 10 µM): 1240 nM
viability, T/C [1]: 110%
viability, T/C [2]: 90.4%
viability, T/C [3]: 97.8%
viability, T/C [4]: 53.6%
viability, T/C [5]: 32%
viability, T/C [6]: 15.5%
viability, T/C [7]: 89.4%
viability, T/C [8]: 103%
viability, T/C [9]: 85.5%
viability, T/C [10]: 69.9%
viability, T/C [11]: 32.7%
viability, T/C [12]: 16.4%
viability, T/C [13]: 88.3%
viability, T/C [14]: 103%
viability, T/C [15]: 84.8%
viability, T/C [16]: 66.9%
viability, T/C [17]: 35.2%
viability, T/C [18]: 14.1%
viability, T/C [19]: 92%
viability, T/C [20]: 97.3%
viability, T/C [21]: 96.5%
viability, T/C [22]: 66.7%
viability, T/C [23]: 36.4%
viability, T/C [24]: 13.7%
viability, T/C [25]: 83.5%
viability, T/C [26]: 89.9%
viability, T/C [27]: 75.5%
viability, T/C [28]: 57.6%
viability, T/C [29]: 24.7%
viability, T/C [30]: 14.7%
viability, T/C [31]: 84.7%
viability, T/C [32]: 104%
viability, T/C [33]: 80.9%
viability, T/C [34]: 55.6%
viability, T/C [35]: 26.4%
viability, T/C [36]: 13.8%

COc1ccc([C@@H](O)c2cc(-c3ncnc4cc(N5CCOCC5)ccc34)c(F)cc2Cl)nn1 + Cc1[nH]c2ccc(F)cc2c1-c1nc2c3cccnc3c3ncccc3c2[nH]1
IC50 (second compound 0.0316 µM): 3020 nM
IC50 (second compound 0.1 µM): 2690 nM
IC50 (second compound 0.316 µM): 3660 nM
IC50 (second compound 1 µM): 2520 nM
IC50 (second compound 3.16 µM): 1850 nM
IC50 (second compound 10 µM): 1760 nM
viability, T/C [1]: 83.4%
viability, T/C [2]: 98.8%
viability, T/C [3]: 91.8%
viability, T/C [4]: 69.8%
viability, T/C [5]: 51.6%
viability, T/C [6]: 31.4%
viability, T/C [7]: 91.9%
viability, T/C [8]: 90.2%
viability, T/C [9]: 94.7%
viability, T/C [10]: 68.6%
viability, T/C [11]: 48.7%
viability, T/C [12]: 27.7%
viability, T/C [13]: 91.2%
viability, T/C [14]: 88.9%
viability, T/C [15]: 82%
viability, T/C [16]: 86.6%
viability, T/C [17]: 53.2%
viability, T/C [18]: 28.1%
viability, T/C [19]: 81%
viability, T/C [20]: 79%
viability, T/C [21]: 94.2%
viability, T/C [22]: 66.5%
viability, T/C [23]: 46.5%
viability, T/C [24]: 22.4%
viability, T/C [25]: 98.5%
viability, T/C [26]: 87.9%
viability, T/C [27]: 74.4%
viability, T/C [28]: 63.2%
viability, T/C [29]: 39.1%
viability, T/C [30]: 21.3%
viability, T/C [31]: 97.4%
viability, T/C [32]: 78.3%
viability, T/C [33]: 76%
viability, T/C [34]: 56%
viability, T/C [35]: 45.7%
viability, T/C [36]: 21.1%

C=CCn1c(=O)c2cnc(Nc3ccc(N4CCN(C)CC4)cc3)nc2n1-c1cccc(C(C)(C)O)n1 + CN(C)c1ccc(Nc2c3ccc(NC(=O)CCN4CCCC4)cc3nc3cc(NC(=O)CCN4CCCC4)ccc23)cc1
IC50 (second compound 0.0316 µM): 554 nM
IC50 (second compound 0.1 µM): 544 nM
IC50 (second compound 0.316 µM): 344 nM
IC50 (second compound 1 µM): 450 nM
IC50 (second compound 3.16 µM): 507 nM
IC50 (second compound 10 µM): 459 nM
viability, T/C [1]: 98.2%
viability, T/C [2]: 89.9%
viability, T/C [3]: 79.2%
viability, T/C [4]: 19.5%
viability, T/C [5]: 7.62%
viability, T/C [6]: 4.64%
viability, T/C [7]: 101%
viability, T/C [8]: 88.2%
viability, T/C [9]: 76%
viability, T/C [10]: 21.3%
viability, T/C [11]: 8.2%
viability, T/C [12]: 4.88%
viability, T/C [13]: 116%
viability, T/C [14]: 93.7%
viability, T/C [15]: 53.8%
viability, T/C [16]: 17.2%
viability, T/C [17]: 6.62%
viability, T/C [18]: 4.69%
viability, T/C [19]: 88.7%
viability, T/C [20]: 84.9%
viability, T/C [21]: 62.5%
viability, T/C [22]: 21.5%
viability, T/C [23]: 10.6%
viability, T/C [24]: 4.67%
viability, T/C [25]: 93.1%
viability, T/C [26]: 92.8%
viability, T/C [27]: 71.8%
viability, T/C [28]: 18.2%
viability, T/C [29]: 12.4%
viability, T/C [30]: 4.45%
viability, T/C [31]: 84.4%
viability, T/C [32]: 75.1%
viability, T/C [33]: 62.5%
viability, T/C [34]: 26.4%
viability, T/C [35]: 9.3%
viability, T/C [36]: 6.12%
